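Test compounds were applied to cells in 96-well plates for 48 hours at 5 doses. TGI marks complete inhibition of growth.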
Legend:
Assay in all cases: inhibition of tumour cell growth, NCI panel, 48 h
786-0 renal = tested on: 786-0 renal
A498 renal = tested on: A498 renal
A549 NSCLC = tested on: A549 NSCLC
ACHN renal = tested on: ACHN renal
CAKI-1 renal = tested on: CAKI-1 renal
CCRF-CEM leukemia = tested on: CCRF-CEM leukemia
COLO 205 colon = tested on: COLO 205 colon
DLD-1 colon = tested on: DLD-1 colon
DMS 114 small cell lung = tested on: DMS 114 small cell lung
DMS 273 small cell lung = tested on: DMS 273 small cell lung
EKVX NSCLC = tested on: EKVX NSCLC
HCC-2998 colon = tested on: HCC-2998 colon
HCT-116 colon = tested on: HCT-116 colon
HCT-15 colon = tested on: HCT-15 colon
HL-60(TB) leukemia = tested on: HL-60(TB) leukemia
HOP-18 NSCLC = tested on: HOP-18 NSCLC
HOP-92 NSCLC = tested on: HOP-92 NSCLC
HT29 colon = tested on: HT29 colon
IGROV1 ovarian = tested on: IGROV1 ovarian
K-562 leukemia = tested on: K-562 leukemia
KM12 colon = tested on: KM12 colon
KM20L2 colon = tested on: KM20L2 colon
LOX IMVI melanoma = tested on: LOX IMVI melanoma
LXFL 529 NSCLC = tested on: LXFL 529 NSCLC
M14 melanoma = tested on: M14 melanoma
M19-MEL melanoma = tested on: M19-MEL melanoma
MALME-3M melanoma = tested on: MALME-3M melanoma
MOLT-4 leukemia = tested on: MOLT-4 leukemia
NCI-H226 lung = tested on: NCI-H226 lung
NCI-H23 lung = tested on: NCI-H23 lung
NCI-H460 lung = tested on: NCI-H460 lung
NCI-H522 lung = tested on: NCI-H522 lung
OVCAR-3 ovarian = tested on: OVCAR-3 ovarian
OVCAR-4 ovarian = tested on: OVCAR-4 ovarian
OVCAR-5 ovarian = tested on: OVCAR-5 ovarian
OVCAR-8 ovarian = tested on: OVCAR-8 ovarian
RPMI-8226 leukemia = tested on: RPMI-8226 leukemia
RXF 393 renal = tested on: RXF 393 renal
RXF-631 renal = tested on: RXF-631 renal
SF-268 CNS = tested on: SF-268 CNS
SF-295 CNS = tested on: SF-295 CNS
SF-539 CNS = tested on: SF-539 CNS
SK-MEL-2 melanoma = tested on: SK-MEL-2 melanoma
SK-MEL-28 melanoma = tested on: SK-MEL-28 melanoma
SK-MEL-5 melanoma = tested on: SK-MEL-5 melanoma
SK-OV-3 ovarian = tested on: SK-OV-3 ovarian
SN12C renal = tested on: SN12C renal
SNB-19 CNS = tested on: SNB-19 CNS
SNB-75 CNS = tested on: SNB-75 CNS
SNB-78 CNS = tested on: SNB-78 CNS
SW-620 colon = tested on: SW-620 colon
TK-10 renal = tested on: TK-10 renal
U251 CNS = tested on: U251 CNS
UACC-257 melanoma = tested on: UACC-257 melanoma
UACC-62 melanoma = tested on: UACC-62 melanoma
UO-31 renal = tested on: UO-31 renal
XF 498 CNS = tested on: XF 498 CNS

Measured: TGI

CN1CCN2c3ccccc3CC(C#N)(C#N)C2C1 (stereo unspecified)
> 100 µM: 786-0 renal | A498 renal | A549 NSCLC | ACHN renal | CAKI-1 renal | CCRF-CEM leukemia | COLO 205 colon | DLD-1 colon | DMS 114 small cell lung | DMS 273 small cell lung | EKVX NSCLC | HCC-2998 colon | HCT-116 colon | HCT-15 colon | HL-60(TB) leukemia | HOP-18 NSCLC | HOP-92 NSCLC | HT29 colon | IGROV1 ovarian | K-562 leukemia | KM12 colon | KM20L2 colon | LOX IMVI melanoma | LXFL 529 NSCLC | M14 melanoma | M19-MEL melanoma | MALME-3M melanoma | MOLT-4 leukemia | NCI-H226 lung | NCI-H23 lung | NCI-H460 lung | NCI-H522 lung | OVCAR-3 ovarian | OVCAR-4 ovarian | OVCAR-5 ovarian | OVCAR-8 ovarian | RPMI-8226 leukemia | RXF 393 renal | RXF-631 renal | SF-268 CNS | SF-295 CNS | SF-539 CNS | SK-MEL-2 melanoma | SK-MEL-28 melanoma | SK-MEL-5 melanoma | SK-OV-3 ovarian | SN12C renal | SNB-19 CNS | SNB-75 CNS | SNB-78 CNS | SW-620 colon | TK-10 renal | U251 CNS | UACC-257 melanoma | UACC-62 melanoma | UO-31 renal

COc1ccc(/C=C/C(=O)c2c(-c3ccccc3)nn(C)c(=O)c2N2CCCC2)cc1
37.5 µM: HOP-92 NSCLC
> 100 µM: 786-0 renal | A498 renal | A549 NSCLC | ACHN renal | CCRF-CEM leukemia | COLO 205 colon | DLD-1 colon | DMS 114 small cell lung | DMS 273 small cell lung | EKVX NSCLC | HCT-116 colon | HCT-15 colon | HL-60(TB) leukemia | HOP-18 NSCLC | HT29 colon | IGROV1 ovarian | K-562 leukemia | KM20L2 colon | LOX IMVI melanoma | LXFL 529 NSCLC | M14 melanoma | M19-MEL melanoma | MOLT-4 leukemia | NCI-H460 lung | OVCAR-8 ovarian | RPMI-8226 leukemia | SF-268 CNS | SF-295 CNS | SF-539 CNS | SK-MEL-28 melanoma | SK-MEL-5 melanoma | SK-OV-3 ovarian | SN12C renal | SW-620 colon | TK-10 renal | U251 CNS | UACC-62 melanoma | UO-31 renal | XF 498 CNS
